Experimental data reported in US20120029187A1, “HALOALKYLSULFONANILIDE DERIVATIVE” (Nissan Chemical Industries, Ltd., priority 2009, published 2012).

Columns and labels:
Type in all cases: in vivo
common lambsquater [1] = assay: Test Example 4: herbicidal effect in foliage treatment; details: dose 3.2 g/a, three weeks after application
Source text: (§1) Test on the Herbicidal Effect in Foliage Treatment
(§2) Sterilized diluvial soil was put in plastic boxes with a length of 21 cm, a width of 13 cm and a depth of 7 cm, and seeds of barnyardgrass, large crabgrass, giant foxtail, wild oat, blackgrass, velvetleaf, common ragweed, redroot pigweed, common lambsquater, posumbu knotweed, common chickweed, corn, soybean, rice, wheat and sugar beet were sown in spots and covered with an about 1.5 cm-thick soil layer. The boxes were placed in a greenhouse at 25 to 30° C. to grow the plants. After 14 days, emulsifiable concentrates containing compounds of the present invention formulated in accordance with Formulation Example 2 were uniformly applied to the foliage at predetermined doses through a small sprayer after diluted with water. Three weeks after the application, the herbicidal effects against various plants were determined on the same evaluation scale as in Test Example 1.
(§3) A: barnyardgrass, B: bulrush, C: ducksalad, D: large crabgrass, E: giant foxtail, F: wild oat, G: water foxtail, H: Italian ryegrass, I: velvetleaf, J: common ragweed, K: redroot pigweed, L: common lambsquater, M: posumbu knotweed, N: common chickweed, O: beadstraw, a: transplanted rice, b: corn, c: soybean, d: direct-seeded rice, e: wheat, f: sugar beet.
(§4) The doses (g/a) represents the amounts in g per 1 are (a) applied after adjustment of concentration adjustment.

beadstraw = assay: as above; details: dose 3.2 g/a, three weeks after application
Source text: as §1, §2, §3, §4

common chickweed [2] = assay: as above; details: dose 3.2 g/a, three weeks after application
Source text: as §1, §2, §3, §4

posumbu knotweed [3] = assay: as above; details: dose 3.2 g/a, three weeks after application
Source text: as §1, §2, §3, §4

large crabgrass [4] = assay: as above; details: dose 3.2 g/a, three weeks after application
Source text: as §1, §2, §3, §4

giant foxtail [5] = assay: as above; details: dose 3.2 g/a, three weeks after application
Source text: as §1, §2, §3, §4

barnyardgrass [6] = assay: as above; details: dose 3.2 g/a, three weeks after application
Source text: as §1, §2, §3, §4

Italian ryegrass [7] = assay: as above; details: dose 3.2 g/a, three weeks after application
Source text: as §1, §2, §3, §4

water foxtail [8] = assay: as above; details: dose 3.2 g/a, three weeks after application
Source text: as §1, §2, §3, §4

velvetleaf = assay: as above; details: dose 3.2 g/a, three weeks after application
Source text: as §1, §2, §3, §4

common ragweed [9] = assay: as above; details: dose 3.2 g/a, three weeks after application
Source text: as §1, §2, §3, §4

redroot pigweed [10] = assay: as above; details: dose 3.2 g/a, three weeks after application
Source text: as §1, §2, §3, §4

transplanted rice = assay: Test Example 1: preemergence treatment under submerged conditions, effect on crop; details: dose 2.52 g/a
Source text: (§5) Test on the Herbicidal Effects in Preemergence Treatment on Weeds Under Submerged Conditions
(§6) Alluvial soil was put in 1/30000-are styrol cups and admixed with water so that it was submerged at a depth of 4 cm. In each cup, seeds of barnyardgrass, bulrush and ducksalad were sown together, and rice seedlings at the 2.5-leaf stage were transplanted. On the same day as the seeding, emulsifiable concentrates containing compounds of the present invention formulated in accordance with Formulation Example 2 were applied to the water surfaces at predetermined doses after diluted with water. The cups were placed in a greenhouse at 25 to 30° C. to grow the plants. Three weeks after the application, the herbicidal effects against various plants were determined on the following evaluation scale.
(§7) 5 mortality of 90% or above (nearly complete death)
(§8) 4 mortality of at least 70% and less than 90%
(§9) 3 mortality of at least 40% and less than 70%
(§10) 2 mortality of at least 20% and less than 40%
(§11) 1 mortality of at least 5% and less than 20%
(§12) 0 mortality of less than 5% (almost ineffective)
as §3, §4

bulrush [11] = assay: Test Example 1: herbicidal effects in preemergence treatment under submerged conditions; details: dose 2.52 g/a
Source text: as §5, §6, §7, §8, §9, §10, §11, §12, §3, §4

barnyardgrass [12] = assay: as above; details: dose 2.52 g/a
Source text: as §5, §6, §7, §8, §9, §10, §11, §12, §3, §4

ducksalad [13] = assay: as above; details: dose 2.52 g/a
Source text: as §5, §6, §7, §8, §9, §10, §11, §12, §3, §4

bulrush [14] = assay: Test Example 2: herbicidal effects during the vegetation period under submerged conditions; details: treatment during the vegetation period under submerged conditions; dose 2.52 g/a
Experimental: (§13) Test on the Herbicidal Effects on Weeds During the Vegetation Period Under Submerged Conditions
(§14) Alluvial soil was put in 1/30000-are styrol cups and admixed with water so that it was submerged at a depth of 4 cm. In each cup, seeds of barnyardgrass, bulrush and ducksalad were sown together, and the cups were placed in a greenhouse at 25 to 30° C. to grow the plants. When the barnyardgrass, bulrush and ducksalad reached the 1- or 2-leaf stage, emulsifiable concentrates containing compounds of the present invention formulated in accordance with Formulation Example 2 were applied to the water surfaces at predetermined doses after diluted with water. Three weeks after the application, the herbicidal effects against various plants were determined on the same evaluation scale as in Test Example 1.
as §3, §4

barnyardgrass [15] = assay: as above; details: treatment during the vegetation period under submerged conditions; dose 2.52 g/a
Experimental: as §13, §14, §3, §4

ducksalad [16] = assay: as above; details: treatment during the vegetation period under submerged conditions; dose 2.52 g/a
Experimental: as §13, §14, §3, §4

common lambsquater [17] = assay: Test Example 3: herbicidal effects in soil treatment; details: dose 3.2 g/a
Source text: (§15) Test on the Herbicidal Effects in Soil Treatment
as §2, with “chickweed” for “chickweed,”, “Emulsifiable” for “The boxes were placed in a greenhouse at 25 to 30° C. to grow the plants. After 14 days, emulsifiable”, “soil surfaces” for “foliage”, “dilute” for “diluted”
as §3, §4

common chickweed [18] = assay: as above; details: dose 3.2 g/a
Source text: as §15
as §2, with “chickweed” for “chickweed,”, “Emulsifiable” for “The boxes were placed in a greenhouse at 25 to 30° C. to grow the plants. After 14 days, emulsifiable”, “soil surfaces” for “foliage”, “dilute” for “diluted”
as §3, §4

posumbu knotweed [19] = assay: as above; details: dose 3.2 g/a
Source text: as §15
as §2, with “chickweed” for “chickweed,”, “Emulsifiable” for “The boxes were placed in a greenhouse at 25 to 30° C. to grow the plants. After 14 days, emulsifiable”, “soil surfaces” for “foliage”, “dilute” for “diluted”
as §3, §4

large crabgrass [20] = assay: as above; details: dose 3.2 g/a
Source text: as §15
as §2, with “chickweed” for “chickweed,”, “Emulsifiable” for “The boxes were placed in a greenhouse at 25 to 30° C. to grow the plants. After 14 days, emulsifiable”, “soil surfaces” for “foliage”, “dilute” for “diluted”
as §3, §4

giant foxtail [21] = assay: as above; details: dose 3.2 g/a
Source text: as §15
as §2, with “chickweed” for “chickweed,”, “Emulsifiable” for “The boxes were placed in a greenhouse at 25 to 30° C. to grow the plants. After 14 days, emulsifiable”, “soil surfaces” for “foliage”, “dilute” for “diluted”
as §3, §4

barnyardgrass [22] = assay: as above; details: dose 3.2 g/a
Source text: as §15
as §2, with “chickweed” for “chickweed,”, “Emulsifiable” for “The boxes were placed in a greenhouse at 25 to 30° C. to grow the plants. After 14 days, emulsifiable”, “soil surfaces” for “foliage”, “dilute” for “diluted”
as §3, §4

Italian ryegrass [23] = assay: as above; details: dose 3.2 g/a
Source text: as §15
as §2, with “chickweed” for “chickweed,”, “Emulsifiable” for “The boxes were placed in a greenhouse at 25 to 30° C. to grow the plants. After 14 days, emulsifiable”, “soil surfaces” for “foliage”, “dilute” for “diluted”
as §3, §4

water foxtail [24] = assay: as above; details: dose 3.2 g/a
Source text: as §15
as §2, with “chickweed” for “chickweed,”, “Emulsifiable” for “The boxes were placed in a greenhouse at 25 to 30° C. to grow the plants. After 14 days, emulsifiable”, “soil surfaces” for “foliage”, “dilute” for “diluted”
as §3, §4

common ragweed [25] = assay: as above; details: dose 3.2 g/a
Source text: as §15
as §2, with “chickweed” for “chickweed,”, “Emulsifiable” for “The boxes were placed in a greenhouse at 25 to 30° C. to grow the plants. After 14 days, emulsifiable”, “soil surfaces” for “foliage”, “dilute” for “diluted”
as §3, §4

redroot pigweed [26] = assay: as above; details: dose 3.2 g/a
Source text: as §15
as §2, with “chickweed” for “chickweed,”, “Emulsifiable” for “The boxes were placed in a greenhouse at 25 to 30° C. to grow the plants. After 14 days, emulsifiable”, “soil surfaces” for “foliage”, “dilute” for “diluted”
as §3, §4

SMILES | L: common lambsquater, herbicidal effect (common lambsquater [1]) | O: beadstraw, herbicidal effect (beadstraw) | N: common chickweed, herbicidal effect (common chickweed [2]) | M: posumbu knotweed, herbicidal effect (posumbu knotweed [3]) | D: large crabgrass, herbicidal effect (large crabgrass [4]) | E: giant foxtail, herbicidal effect (giant foxtail [5]) | A: barnyardgrass, herbicidal effect (barnyardgrass [6]) | H: Italian ryegrass, herbicidal effect (Italian ryegrass [7]) | G: water foxtail, herbicidal effect (water foxtail [8]) | I: velvetleaf, herbicidal effect (velvetleaf) | J: common ragweed, herbicidal effect (common ragweed [9]) | K: redroot pigweed, herbicidal effect (redroot pigweed [10]) | a: transplanted rice, effect on crop (evaluation scale 0-5) (transplanted rice) | B: bulrush, herbicidal effect (evaluation scale 0-5) (bulrush [11]) | A: barnyardgrass, herbicidal effect (evaluation scale 0-5) (barnyardgrass [12]) | C: ducksalad, herbicidal effect (evaluation scale 0-5) (ducksalad [13]) | B: bulrush, herbicidal effect (evaluation scale 0-5) (bulrush [14]) | A: barnyardgrass, herbicidal effect (evaluation scale 0-5) (barnyardgrass [15]) | C: ducksalad, herbicidal effect (evaluation scale 0-5) (ducksalad [16]) | L: common lambsquater, herbicidal effect (evaluation scale 0-5) (common lambsquater [17]) | also measured
CC1(C(F)(F)F)CC(=O)N(Cc2ccccc2N(C(=O)C2CC2)S(=O)(=O)C(F)(F)F)CO1 (stereo not shown) [II-48] | 0 (mortality of less than 5% (almost ineffective)) | 4 (mortality of at least 70% and less than 90%) | 3 (mortality of at least 40% and less than 70%) | 2 (mortality of at least 20% and less than 40%) | 1 (mortality of at least 5% and less than 20%) | 2 (mortality of at least 20% and less than 40%) | 4 (mortality of at least 70% and less than 90%) | 0 (mortality of less than 5% (almost ineffective)) | 2 (mortality of at least 20% and less than 40%) | 4 (mortality of at least 70% and less than 90%) | 2 (mortality of at least 20% and less than 40%) | 0 (mortality of less than 5% (almost ineffective)) | 0 (mortality of less than 5% (almost ineffective)) | 5 (mortality of 90% or above (nearly complete death)) | 5 (mortality of 90% or above (nearly complete death)) | 5 (mortality of 90% or above (nearly complete death)) | 5 (mortality of 90% or above (nearly complete death)) | 5 (mortality of 90% or above (nearly complete death)) | 5 (mortality of 90% or above (nearly complete death)) | 0 (mortality of less than 5% (almost ineffective)) | N: common chickweed, herbicidal effect (evaluation scale 0-5) (common chickweed [18]): 4 (mortality of at least 70% and less than 90%); M: posumbu knotweed, herbicidal effect (evaluation scale 0-5) (posumbu knotweed [19]): 3 (mortality of at least 40% and less than 70%); D: large crabgrass, herbicidal effect (evaluation scale 0-5) (large crabgrass [20]): 5 (mortality of 90% or above (nearly complete death)); E: giant foxtail, herbicidal effect (evaluation scale 0-5) (giant foxtail [21]): 4 (mortality of at least 70% and less than 90%); A: barnyardgrass, herbicidal effect (evaluation scale 0-5) (barnyardgrass [22]): 5 (mortality of 90% or above (nearly complete death)); H: Italian ryegrass, herbicidal effect (evaluation scale 0-5) (Italian ryegrass [23]): 0 (mortality of less than 5% (almost ineffective)); G: water foxtail, herbicidal effect (evaluation scale 0-5) (water foxtail [24]): 5 (mortality of 90% or above (nearly complete death)); J: common ragweed, herbicidal effect (evaluation scale 0-5) (common ragweed [25]): 4 (mortality of at least 70% and less than 90%); K: redroot pigweed, herbicidal effect (evaluation scale 0-5) (redroot pigweed [26]): 0 (mortality of less than 5% (almost ineffective))
CC(C)COC(=O)N(c1ccccc1CN1COC(C)(C(F)(F)F)CC1=O)S(=O)(=O)C(F)(F)F (stereo not shown) [II-50] | 2 (mortality of at least 20% and less than 40%) | 4 (mortality of at least 70% and less than 90%) | 3 (mortality of at least 40% and less than 70%) | 0 (mortality of less than 5% (almost ineffective)) | 0 (mortality of less than 5% (almost ineffective)) | 0 (mortality of less than 5% (almost ineffective)) | 3 (mortality of at least 40% and less than 70%) | 0 (mortality of less than 5% (almost ineffective)) | 1 (mortality of at least 5% and less than 20%) | 0 (mortality of less than 5% (almost ineffective)) | 3 (mortality of at least 40% and less than 70%) | 0 (mortality of less than 5% (almost ineffective)) | 0 (mortality of less than 5% (almost ineffective)) | 5 (mortality of 90% or above (nearly complete death)) | 5 (mortality of 90% or above (nearly complete death)) | 5 (mortality of 90% or above (nearly complete death)) | 5 (mortality of 90% or above (nearly complete death)) | 5 (mortality of 90% or above (nearly complete death)) | 5 (mortality of 90% or above (nearly complete death)) | 3 (mortality of at least 40% and less than 70%) | N: common chickweed, herbicidal effect (evaluation scale 0-5) (common chickweed [18]): 3 (mortality of at least 40% and less than 70%); M: posumbu knotweed, herbicidal effect (evaluation scale 0-5) (posumbu knotweed [19]): 0 (mortality of less than 5% (almost ineffective)); D: large crabgrass, herbicidal effect (evaluation scale 0-5) (large crabgrass [20]): 3 (mortality of at least 40% and less than 70%); E: giant foxtail, herbicidal effect (evaluation scale 0-5) (giant foxtail [21]): 2 (mortality of at least 20% and less than 40%); A: barnyardgrass, herbicidal effect (evaluation scale 0-5) (barnyardgrass [22]): 4 (mortality of at least 70% and less than 90%); H: Italian ryegrass, herbicidal effect (evaluation scale 0-5) (Italian ryegrass [23]): 0 (mortality of less than 5% (almost ineffective)); G: water foxtail, herbicidal effect (evaluation scale 0-5) (water foxtail [24]): 4 (mortality of at least 70% and less than 90%); J: common ragweed, herbicidal effect (evaluation scale 0-5) (common ragweed [25]): 3 (mortality of at least 40% and less than 70%); K: redroot pigweed, herbicidal effect (evaluation scale 0-5) (redroot pigweed [26]): 0 (mortality of less than 5% (almost ineffective))
